Here are results for eight molecules from EP1780283A1, “Trophic conversion of obligate photographic algae through metabolic engineering” (MARTEK BIOSCIENCES CORPORATION, priority 2000, dated 2001).

Where two headings read alike, the source gives them in different places.

Experiment [1] has as its system human Glut1 glucose transporter (Glut1, from human erythrocytes), expressed in P. tricornutum transformants Glut-13 and Glut-17. Briefly: Glucose uptake kinetics (D-14C-glucose) of glut1 containing P. tricornutum transformants. Particulars: cell line Glut-13; 5x10^-4 of Cytochalasin B (unit not given). The format is cell-based, Phaeodactylum tricornutum.
The test system of a further experiment is Cylindrotheca fusiformis. The experiment in a line: Antibiotic sensitivity of diatoms on solid media. In kind it is cell-based. Particulars: for lowest concentration of antibiotic per ml required for cell death or the lowest concentration tested: reduced salinity. As to the method: (§1) The diatoms Phaeodactylum tricornutum, Cylindrotheca fusiformis, Cyclotella cryptica and Nitzschia alba were extensively tested for sensitivity to a series of antibiotics for which resistance genes are available, and the lowest concentrations which completely abrogate growth were determined for each antibiotic (Table C). […] These include antibiotics such as G418, Hygromycin, Kanamycin and Spectinomycin, which are routinely utilized for selection of other eukaryotic organisms.
(§2) The effective concentration range of the antibiotic in most cases was lowered by a factor of 10.
(§3) Cells of each diatom species were plated on solid media at salinity equivalents of 25-100% I.O. media, with a gradient of antibiotic concentrations. After 2 weeks of illumination the growth of the cells was assessed and the concentration of antibiotic required for cell death was determined. (Table D). Table C. Effect of antibiotics on the growth of selected diatoms. Values represent the lowest concentration of the antibiotic per ml required for cell death or the highest concentration tested.
(§4) Table D. Effect of antibiotics on the growth of selected diatoms in media with reduced salinity. The relative percentage of salinity verses normal seawater of the medium is given in parentheses. Antibiotic levels are given as the lowest concentration of antibiotic per ml required for cell death or the lowest concentration tested.

The test system of experiment [2] is Phaeodactylum tricornutum. Briefly: Antibiotic sensitivity of diatoms on solid media. Particulars: for lowest concentration of antibiotic per ml required for cell death or the lowest concentration tested: reduced salinity. In kind it is cell-based. The protocol: as §1, §2, §3, §4
In the next experiment the test system is Cyclotella cryptica. Briefly: Antibiotic sensitivity of diatoms on solid media. The following applies: for lowest concentration of antibiotic per ml required for cell death or the lowest concentration tested: reduced salinity, 10% of normal seawater. In kind it is cell-based. The protocol: as §1, §2, §3, §4
The test system of a further experiment is Nitzschia alba. The experiment in a line: Antibiotic sensitivity of diatoms on solid media. In kind it is cell-based. The protocol: as §1, §3
Where [3] appears, read: C. fusiformis, solid media, 100% I.O. media, 2 weeks of illumination.
Setting [4] is: P. tricornutum, solid media, 100% I.O. media, 2 weeks of illumination.
Setting [5] is: C. cryptica, solid media, 100% I.O. media, 2 weeks of illumination.
Where [6] appears, read: N. alba, solid media, 100% I.O. media, 2 weeks of illumination.
The mark [7] stands for this setting: C. fusiformis, 25% of normal seawater.
Setting [8] is: C. fusiformis, 50% of normal seawater.
Where [9] appears, read: P. tricornutum, 50% of normal seawater.
[10] abbreviates: P. tricornutum, 25% of normal seawater.

`C=C1C(C)C2C(Cc3ccccc3)NC(=O)C23OC(=O)C=CC(O)CCCC(C)CC=CC3C1O` (centres unmarked) [Cytochalasin B]: in experiment [1], the “glucose uptake in the presence of Cytochalasin B” value is “reduced to an undetectable level”.

For the molecule `CN[C@@H]1[C@@H](O)[C@@H](O[C@@H]2[C@@H](O)[C@H](O[C@H]3O[C@H]([C@@H](C)O)[C@@H](O)[C@H](O)[C@H]3N)[C@@H](N)C[C@H]2N)OC[C@]1(C)O` [G418], the “lowest concentration of the antibiotic per ml required for cell death or the highest concentration tested” value with Cylindrotheca fusiformis (setting [3]) was > 1 mg mg per ml; in experiment [2] (setting [4]), > 1 mg mg per ml; in the experiment with Cyclotella cryptica (setting [5]), 250 mg mg per ml; with Nitzschia alba (setting [6]) it was > 500 mg mg per ml.

Turning to `CN[C@@H]1C[C@H](N)[C@@H](O)[C@H](O[C@H]2O[C@H](CO)[C@H](O)[C@@H]3O[C@@]4(O[C@@H]23)O[C@H]([C@H](N)CO)[C@H](O)[C@H](O)[C@H]4O)[C@H]1O` [Hygromycin], the “lowest concentration of the antibiotic per ml required for cell death or the highest concentration tested” value is listed as 500 mg with Cylindrotheca fusiformis, > 1 mg in experiment [2], > 500 mg with Cyclotella cryptica and > 500 mg with Nitzschia alba.

Turning to `Cc1c(N)nc([C@H](CC(N)=O)NC[C@H](N)C(N)=O)nc1C(=O)N[C@H](C(=O)N[C@H](C)[C@@H](O)[C@H](C)C(=O)N[C@H](C(=O)NCCC1=N[C@@H](c2nc(C(=O)NCCCCN=C(N)N)cs2)CS1)[C@@H](C)O)[C@@H](O[C@@H]1O[C@@H](CO)[C@@H](O)[C@H](O)[C@@H]1O[C@H]1O[C@H](CO)[C@@H](O)[C@H](OC(N)=O)[C@@H]1O)c1cnc[nH]1` [Zeocin], the “lowest concentration of antibiotic per ml required for cell death or the lowest concentration tested” value in the experiment with Cylindrotheca fusiformis (setting [7]) is 100 mg (25%) mg per ml; in the experiment on Cylindrotheca fusiformis (setting [8]), 250 mg (50%) mg per ml; in experiment [2] (setting [9]), 25 mg (50%) mg per ml; in the experiment on Cyclotella cryptica (C. cryptica), < 5 mg (10%) mg per ml. Further, the “lowest concentration of the antibiotic per ml required for cell death or the highest concentration tested” value with Cylindrotheca fusiformis (setting [3]) was > 250 mg mg per ml; in experiment [2] (setting [4]), 50 mg mg per ml; in the experiment with Cyclotella cryptica (setting [5]) it was 250 mg mg per ml; in the experiment on Nitzschia alba (setting [6]) it was > 250 mg mg per ml.

As to Bleomycin, the “lowest concentration of the antibiotic per ml required for cell death or the highest concentration tested” value (with Cylindrotheca fusiformis (setting [3]); in experiment [2] (setting [4])) was > 50 mg mg per ml throughout.

Consider Neomycin, for which the “lowest concentration of the antibiotic per ml required for cell death or the highest concentration tested” value (with Cylindrotheca fusiformis (setting [3]); in experiment [2] (setting [4]); in the experiment with Cyclotella cryptica (setting [5]); in the experiment with Nitzschia alba (setting [6])) was > 1 mg mg per ml throughout.

For Nourseothricin, the “lowest concentration of antibiotic per ml required for cell death or the lowest concentration tested” value is listed as < 10 mg (25%) mg per ml in the experiment on Cylindrotheca fusiformis (setting [7]); 50 mg (50%) mg per ml in the experiment on Cylindrotheca fusiformis (setting [8]); 10 mg (25%) mg per ml in experiment [2] (setting [10]); 25 mg (50%) mg per ml in experiment [2] (setting [9]); < 5 mg (10%) mg per ml with Cyclotella cryptica (C. cryptica). Moreover, the “lowest concentration of the antibiotic per ml required for cell death or the highest concentration tested” value is recorded as > 250 mg mg per ml in the experiment on Cylindrotheca fusiformis (setting [3]), 250 mg mg per ml in experiment [2] (setting [4]), >250 mg mg per ml in the experiment on Cyclotella cryptica (setting [5]) and > 250 mg mg per ml with Nitzschia alba (setting [6]).

Take Phleomycin: the “lowest concentration of antibiotic per ml required for cell death or the lowest concentration tested” value in the experiment on Cylindrotheca fusiformis (setting [7]) was < 5 mg (25%) mg per ml; with Cylindrotheca fusiformis (setting [8]), 25 mg (50%) mg per ml; in experiment [2] (setting [10]) it was < 5 mg (25%) mg per ml; in experiment [2] (setting [9]), < 5 mg (50%) mg per ml; in the experiment on Cyclotella cryptica (C. cryptica) it was < 5 mg (10%) mg per ml. Also, the “lowest concentration of the antibiotic per ml required for cell death or the highest concentration tested” value in the experiment with Cylindrotheca fusiformis (setting [3]) was 25 mg mg per ml; in experiment [2] (setting [4]), 5 mg mg per ml; in the experiment with Cyclotella cryptica (setting [5]) it was 25 mg mg per ml; in the experiment with Nitzschia alba (setting [6]) it was > 50 mg mg per ml.
